Reference: patent US20260028334A1, “N-(3-(BENZO[B]THIOPHENE-2-CARBOXAMIDO)-PHENYL)-2,3-DIHYDROBENZO[B][1,4]DIOXINE-6-CARBOXAMIDE DERIVATIVES AND RELATED COMPOUNDS AS LACTATE/ATP PRODUCTION INHIBITORS FOR THE TREATMENT OF CANCER” (WMT Aktiengesellschaft, priority 2022, published 2026)

Tests used:
Assay type in all cases: cell-based
Panc02 and SKOV3 cells = experiment: Lactate production inhibition assay (FIGS. 8C and 8D); details: 48 hours treatment, 1.5 to 10000 nM
Text: (§1) Recombinant Lactate Dehydrogenase A (LDHA) was used to convert lactate in tissue culture supernatants to pyruvate, with the concomitant reduction of NAD^+ to NADH. The electron acceptor 1-methoxyphenazine methosulfate (MPMS) was then reduced by the generated NADH, thereby regenerating NAD+. Reduced 1-methoxyphenazine methosulfate is used in turn to reduce Water Soluble Tetrazolium 8 (WST8) to an orange WST8 formazan product. The assay is adapted from the publication “Application of WST-8 based colorimetric NAD(P)H detection for quantitative dehydrogenase assays” described in Chamchoy et al., BMC Biochemistry (2019) 20(1):4.
Cells were plated at 4,000 per well in 96-well plate in a medium of high glucose DMEM (PAN) supplemented with 10% FBS (PAN), 2 mM glutamine-alanine (PAN), 2 mM pyruvate (Sigma) and 10 mL/L penicillin-streptomycin (PAN) and grown at 37° C. in 0.5% O2, 5% CO2 and 75% humidity. For hypoxia, cells were grown and treated in the Whitley H35 Hypoxystation (Don Whitley Scientific) at 37° C. in 0.5% O2, 5% CO2 and 75% humidity. The next day, cells were induced with test compounds (FIG. 2: compounds of examples 3/16, 3/8, 10 at 10000, 3333, 1111, 370, 123, 41, 14, 5 and 1.5 nM; FIG. 7: compounds of examples 3/16, 3/8, 10 at 41, 14, 4.6 nM and Phenformin at 100, 50, 25, 12.5, 6.25 μM; FIGS. 8C and 8D: compounds of example 3/16, 3/8, 10, 3/19, 30 and 30/2 at 10000, 3333, 1111, 370, 123, 41, 14, 5 and 1.5 nM), as well as with vehicle (DMSO) only, for 48 hours. After this time, the medium was removed from the cells to measure extracellular lactate. To detect extracellular lactate, cell supernatants are diluted 1:5 in assay buffer (0.2 M tris, pH 8.2) by adding 10 μl cell supernatant+40 μl buffer in a 96-well plate. Assay substrate mix is prepared by adding NAD+ (3.75 mM), WST-8 (0.9 mM), MPMS (10 mM) and recombinant LDHA, expressed in E. coli as an N-terminal hexahistidine tagged fusion protein, is added to a final concentration of 0.8 μg/ml in assay buffer. Thereafter, 80 μl of substrate mix is added to 20 μl of diluted cell supernatant in a 96-well flat-bottomed plate and the absorbance at 460 nm determined at one minute intervals over a 30 minute period. A standard curve of known lactate concentrations of 10, 8, 6, 4, 1, 0.5 and 0.25 mM was constructed for each assay plate.

p70-S6K (Thr389) = p70-S6K (Thr389) (Homo sapiens (Human), UniProt P23443); experiment: Western Blot analysis of p70-S6K phosphorylation; details: HeLa cells, 24 hours, 10, 30 and 100 nM, also with Bafilomycin A, normoxic condition, FIG. 5
Protocol: Western Blot analysis was used to detect amounts of specific protein in differently treated cells. Proteins are separated by size, transferred onto a nitrocellulose membrane and incubated with protein specific antibodies. The density of the observed band is proportional to the amount of the specific protein inside the cell.
Cells were plated at 4×10^6 (for hypoxia) or 3×10^6 (for normoxia) cells per […] plate in medium of high glucose DMEM (PAN) supplemented with 10% FBS (PAN), 2 mM glutamine-alanine (PAN), 2 mM pyruvate (Sigma) and 10 ml/L penicillin-streptomycin (PAN), and grown at 37° C. in 0.5% O2, 5% CO2 and 75% humidity. For hypoxia, cells were grown and treated in the Whitley H35 Hypoxystation (Don Whitley Scientific) at 37° C. in 0.5% O2, 5% CO2 and 75% humidity. Next day, the cells were treated with test compounds (FIG. 4: compounds of example 3/8 and 10 at concentrations 0.1, 0.3 and 1 μM, Bafilomycin A at 20 nM; FIG. 5: compounds of example 3/16, 3/8 and 10 at concentrations 10, 30 and 100 nM, Bafilomycin A at 20 nM), as well as with vehicle (DMSO) only, for 24 h. […] Protein concentration of the sample was measured using the DC Protein Assay Kit (Biorad, 5000112), 22 μg of protein extract per well was loaded onto a precast SDS page gel (Biorad, 1704273). […] The chemiluminescence was measured using chemiluminescent substrate (#34580, Thermo Scientific).

[1] = system: HeLa, 4T1, LLC1, A549, MDA-MB-231 and MiaPaCa2 cells; experiment: Lactate production inhibition assay (FIG. 2); details: 48 hours treatment, 1.5 to 10000 nM
Text: as §1
Cells were plated at 4,000 per well in 96-well plate in a medium of high glucose DMEM (PAN) supplemented with 10% FBS (PAN), 2 mM glutamine-alanine (PAN), 2 mM pyruvate (Sigma) and 10 mL/L penicillin-streptomycin (PAN) and grown at 37° C. in 0.5% O2, 5% CO2 and 75% humidity. For hypoxia, cells were grown and treated in the Whitley H35 Hypoxystation (Don Whitley Scientific) at 37° C. in 0.5% O2, 5% CO2 and 75% humidity. […] Thereafter, 80 μl of substrate mix is added to 20 μl of diluted cell supernatant in a 96-well flat-bottomed plate and the absorbance at 460 nm determined at one minute intervals over a 30 minute period. […]

Compound | lactate levels (Panc02 and SKOV3 cells) | p70-S6K phosphorylation (Thr389) (p70-S6K (Thr389)) | lactate production level [1]
Cc1ccc(NC(=O)c2ccc3c(c2)OCCO3)cc1NC(=O)c1cc2cccnc2s1 [3/16] | dose-dependent downregulation | dose-dependent induction | dose-dependent reduction
O=C(Nc1ccc(F)c(NC(=O)c2cc3ccc(OCCCN4CCCC4)cc3s2)c1)c1ccc2c(c1)OCCO2 [3/8] | dose-dependent downregulation | dose-dependent induction | dose-dependent reduction
